For one experiment, the system named is DDR1. The experiment can be described thus: DDR1 phosphorylation in MDA-MB-468 cells (immunoprecipitation/Western blot). It is filed as cell-based, human. The note with it: PP1 10 μM for 30 min. The procedure: The phosphorylation status of DDR1 was analyzed as previously described (12), with the following modifications. After serum-depletion for 16 h, the cells were detached with Versene and then allowed to adhere to collagen I for 60 (MDA-MB-468) or 90 min (HB2) at 37° C. The experiments were terminated by lysing both adherent and non-adherent cells with a lysis buffer (50 mM Tris pH 7.4, 1% Triton-X, 5 mM EDTA, 5 mM EGTA, 50 mM NaCl, 10 μg/ml aprotinin, 2.5 mM benzamidine, 1 mM pefabloc, 1 μg/ml leupeptin and 1 mM Na3VO4). For immunoblotting an anti-DDR1 rabbit polyclonal Ab, sc-532 (Santa Cruz Biotech, Santa Cruz, Calif.) was used at a dilution of 1:10,000. The Ab recognizes DDR1b/c, which is essential because collagen only induces phosphorylation of the b or c isoforms of DDR1 in mammary epithelial cells (10).
Peptide-induced effects on adhesion and DDR1 phosphorylation in MDA-MB-468 breast cancer cells. (A) Western blot analysis of Wnt-5a protein expression in Wnt-5a antisense and Wnt-5a over-expressing HB2 cells in comparison to MDA-MB-468 tumour cells. […] The amounts of adhesive cells were analyzed as described in the methods and the results are given as means±SEM of 8 separate experiments. […] The amount of adherent cells was estimated as in panel A and expressed as means±SEM of 6 separate experiments, ns=not significant, ** p<0.01 and *** p<0.001. […]
A general note: Immunoblotting shows a protein as a band on a membrane.

A further experiment addresses T1, Src kinase (Homo sapiens, UniProt P12931).
T1 construct: Src activity in MDA-MB-468 cells in the absence and presence of PP1 and/or serum; endogenous in cells; host or cells: MDA-MB-468
Briefly: Src activity in MDA-MB-468 cells (Western blot). It is filed as cell-based. As to conditions: PP1 10 μM for last 30 min; with or without serum. The method, then:
Western blot analysis was performed to evaluate the protein expressions of Wnt-5a, EGF-receptor, Src and Frz-2 and 5 in HB2 and MDA-MB-468 cells. […] The Wnt-5a Ab has been produced in the laboratory, as previously described (9, 10). The cells were lysed and boiled in two times concentrated Laemmli buffer. The protein content was determined in each sample and adjusted to ensure loading of equal amounts of protein in each lane, 50 mM DTT was then added and the lysates were boiled for 10 min, before separation by SDS gel electrophoresis. The proteins were subsequently transferred to PVDF membranes. The membranes were blocked in 3% BSA or 5% non-fat milk for 45 min, incubated with the primary Ab for 1 h (1:2,000 for Wnt-5a, 1:1,000 for activated EGF-receptor, total EGF-receptor, actin, active Src and total Src, and 1:5,000 for Frz-2 and Frz-5), and then for 1 h with a horseradish peroxidase conjugated secondary Ab. The Ab-antigen complex was detected using an enhanced chemiluminescence detection kit from Amersham Pharmacia Biotech (Uppsala, Sweden). In the case of re-probing, the membranes were stripped with a Reblot Strong solution from Chemicon International (Temecula, Calif.).
(A) Effect of pre-treatment (30 min) with the Src-inhibitor PP1 (10 μM) on adhesion induced DDR1 phosphorylation in MDA-MB-468 cells. The blots shown are representative of 3 separate experiments. […]

One compound from patent US20080207521A1, “PEPTIDE LIGAND TO IMPAIR CANCER CELL MIGRATION” (priority 2005, published 2008) can be followed below.

T1 sequence (P12931 whole entry): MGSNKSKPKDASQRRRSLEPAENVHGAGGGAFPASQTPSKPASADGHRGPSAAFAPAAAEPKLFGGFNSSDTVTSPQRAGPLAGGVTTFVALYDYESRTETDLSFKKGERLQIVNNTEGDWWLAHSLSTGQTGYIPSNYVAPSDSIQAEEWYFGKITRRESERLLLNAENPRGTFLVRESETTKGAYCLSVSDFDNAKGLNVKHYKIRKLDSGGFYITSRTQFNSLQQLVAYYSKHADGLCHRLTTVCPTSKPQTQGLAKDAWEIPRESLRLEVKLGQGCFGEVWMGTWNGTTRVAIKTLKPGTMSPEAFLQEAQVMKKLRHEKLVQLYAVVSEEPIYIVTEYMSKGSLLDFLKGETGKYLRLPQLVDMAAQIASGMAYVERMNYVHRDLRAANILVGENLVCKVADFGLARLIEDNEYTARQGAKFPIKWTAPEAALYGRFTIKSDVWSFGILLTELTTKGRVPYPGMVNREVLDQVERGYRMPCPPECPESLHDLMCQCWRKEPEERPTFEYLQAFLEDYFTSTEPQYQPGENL

For `Cc1ccc(-c2nn(C(C)(C)C)c3ncnc(N)c23)cc1` [PP1, 4-amino-5-(4-methyl-phenyl)-7-(t-butyl)pyrozolo-D-3,4-pyrimidine, reference compound], the “basal phosphorylation of DDR1” value in the experiment on DDR1 was “abolished the basal phosphorylation of DDR1”. At Src kinase, the Src kinase activity entry is recorded as “abolished”.
